Test results taken from patent publication US9604975B2, “Indolyl-pyridone derivatives having checkpoint kinase 1 inhibitory activity” (Vernalis (R&D) Ltd., priority 2009, dated 2017).

Experiments:
[1] = system: HT29 cells; assay: CHK1 Cellular Assay - Gemcitabine EC50 Assay; type: cell-based; conditions: HT29 cells, in the presence of gemcitabine at 10 nM, 72 hours, SRB staining; read-out: CHK1 Cellular Activity (EC50 range)
Experimental: The gemcitabine EC50 assay was developed as a rapid method for screening CHK1 inhibitors to determine their relative cell activity. This assay utilises a feature of the effect of CHK1 inhibitors on gemcitabine toxicity. In the absence of a CHK1 inhibitor, gemcitabine acts predominantly as an anti-metbolite and therefore induces very little cell death, even at high concentrations. This can be as high as 70-80% survival at concentrations in excess of 1 μM. However, in the presence of a CHK1 inhibitor, the mechanism of action of gemcitabine switches to a more classical cytotoxic mode of action. For example, the fraction of cells surviving can be reduced to around 30% and below. Concentrations of gemcitabine can be selected that in the absence of a CHK1 inhibitor, have no effect on cell survival but in the presence of a CHK1 inhibitor are highly cytotoxic. 10000 HT29 cells were plated per well of a 96 well plate and allowed to attach at 37° C. in a 5% CO2 humidified incubator for 18 hours. CHK1 inhibitors were then titrated in the presence of 10, 15 and 20 nM gemcitabine for 72 hours and the EC50 determined by staining with sulforhodamine B (SRB) and determining the absorbance at 540 nm.

[2] = molecular target: T1, CHK1 (Homo sapiens, UniProt O14757); assay: CHK1 Enzyme Assay (phosphorylation of Chktide peptide, 33P-ATP filter assay); type: biochemical; conditions: 12.5 nM His-CHK1, 0.01 mM ATP, 40 minutes at 30° C.; read-out: CHK1 Enzyme Activity (IC50 range)
T1 construct: His; purchased Invitrogen
T1 sequence (O14757 1-476): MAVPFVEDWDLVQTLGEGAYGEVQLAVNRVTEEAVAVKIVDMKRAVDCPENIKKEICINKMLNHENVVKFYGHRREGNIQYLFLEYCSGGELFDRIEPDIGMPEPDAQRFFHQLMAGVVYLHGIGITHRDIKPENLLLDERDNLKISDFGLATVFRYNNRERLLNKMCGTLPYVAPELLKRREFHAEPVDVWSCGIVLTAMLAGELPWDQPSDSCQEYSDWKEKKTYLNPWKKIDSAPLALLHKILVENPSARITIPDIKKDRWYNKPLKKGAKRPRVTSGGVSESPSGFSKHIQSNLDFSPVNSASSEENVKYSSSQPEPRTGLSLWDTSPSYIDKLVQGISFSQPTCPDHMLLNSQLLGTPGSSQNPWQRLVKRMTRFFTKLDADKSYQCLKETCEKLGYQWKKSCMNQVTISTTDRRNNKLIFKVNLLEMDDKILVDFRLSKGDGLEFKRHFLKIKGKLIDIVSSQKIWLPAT
Summary of the method: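 Filter-binding radiometric readout of 33P incorporation into Chktide (14.8 μM), after a 40 min, 30 °C reaction at pH 7.5 (50 mM Hepes-NaOH, 0.1 mg/mL BSA). The reaction contained 12.5 nM His-tagged CHK1, inhibitor and 0.01 mM cold ATP plus labelled ATP.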

| EC50 [1] | IC50 [2] | SMILES |
| --- | --- | --- |
| 0.1 to 0.5 µM | < 0.1 µM | CCN(Cc1ccc2[nH]c(-c3cc(NC(=O)c4cnn(Cc5ccccc5)c4)c[nH]c3=O)cc2c1)CC(C)(C)CN(C)C [Example 176, 1-Benzyl-1H-pyrazole-4-carboxylic acid [5-(5-{[(3-dimethylamino-2,2-dimethyl-propyl)-ethyl-amino]-methyl}-1H-indol-2-yl)-6-oxo-1,6-dihydro-pyridin-3-yl]-amide] |
| < 0.1 µM | < 0.1 µM | C[C@@H]1CCC[C@H](C)N1Cc1ccc2[nH]c(-c3cc(NC(=O)c4cnn(Cc5ccccc5)c4)c[nH]c3=O)cc2c1 [Example 177, 1-Benzyl-1H-pyrazole-4-carboxylic acid {5-[5-(cis-2,6-dimethyl-piperidin-1-ylmethyl)-1H-indol-2-yl]-6-oxo-1,6-dihydro-pyridin-3-yl}-amide] |
| < 0.1 µM | < 0.1 µM | CCN(CC)CC(C)(C)COc1ccc2[nH]c(-c3cc(NC(=O)c4cnn(Cc5ccccc5)c4)c[nH]c3=O)cc2c1 [Example 178, 1-Benzyl-1H-pyrazole-4-carboxylic acid {5-[5-(3-diethylamino-2,2-dimethyl-propoxy)-1H-indol-2-yl]-6-oxo-1,6-dihydro-pyridin-3-yl}-amide] |
| < 0.1 µM | < 0.1 µM | CN(C)CC(C)(C)Oc1ccc2[nH]c(-c3cc(NC(=O)c4cnn(Cc5ccccc5)c4)c[nH]c3=O)cc2c1 [Example 179, 1-Benzyl-1H-pyrazole-4-carboxylic acid {5-[5-(2-dimethylamino-1,1-dimethyl-ethoxy)-1H-indol-2-yl]-6-oxo-1,6-dihydro-pyridin-3-yl}-amide] |
| < 0.1 µM | < 0.1 µM | CC(C)(COc1ccc2[nH]c(-c3cc(NC(=O)c4cnn(Cc5ccccc5)c4)c[nH]c3=O)cc2c1)CN1CCCC1 [Example 180, 1-Benzyl-1H-pyrazole-4-carboxylic acid {5-[5-(2,2-dimethyl-3-pyrrolidin-1-yl-propoxy)-1H-indol-2-yl]-6-oxo-1,6-dihydro-pyridin-3-yl}-amide] |
| < 0.1 µM | < 0.1 µM | CC(C)(COc1ccc2[nH]c(-c3cc(NC(=O)c4cnn(Cc5ccccc5)c4)c[nH]c3=O)cc2c1)CN1CCCCC1 [Example 185, 1-Benzyl-1H-pyrazole-4-carboxylic acid {5-[5-(2,2-dimethyl-3-piperidin-1-yl-propoxy)-1H-indol-2-yl]-6-oxo-1,6-dihydro-pyridin-3-yl}-amide] |
| < 0.1 µM | < 0.1 µM | CCN(CC)CC1(COc2ccc3[nH]c(-c4cc(NC(=O)c5cnn(Cc6ccccc6)c5)c[nH]c4=O)cc3c2)CC1 [Example 186, 1-Benzyl-1H-pyrazole-4-carboxylic acid {5-[5-(1-diethylaminomethyl-cyclopropylmethoxy)-1H-indol-2-yl]-6-oxo-1,6-dihydro-pyridin-3-yl}-amide] |
